# Results reported in publication PMC10012588, “Engineering Streptomyces albulus to enhance ε-poly-L-lysine production by introducing a polyphosphate kinase-mediated ATP regeneration system” (Microbial Cell Factories, 2023).
# What was measured:
# Type in all cases: biochemical
# [1] = target: T1, PPK1 (Streptomyces noursei, UniProt A0A2N8P4S7); assay: ATP formation from ADP and polyPn; conditions: 5 uM ADP, 5 uM polyP (polyP6 best), 20 mM MgSO4, 50 mM Tris-HCl pH 8.0, 30 °C, 2 h
# T1 construct: gene ppk; gene amplified from the WG608 genome
# [2] = target: PPK2B^cg (Corynebacterium glutamicum, UniProt Q8NM65); assay: ATP formation from ADP and polyPn; conditions: 5 uM ADP, 5 uM polyP (polyP6 best), 20 mM MgSO4, 50 mM Tris-HCl pH 8.0, 30 °C, 2 h
# [3] = target: T2, PPK2C^pa (Pseudomonas aeruginosa, UniProt Q9HYF1); assay: ATP formation from ADP and polyPn; conditions: 5 uM ADP, 5 uM polyP (polyP6 best), 20 mM MgSO4, 50 mM Tris-HCl pH 8.0, 30 °C, 2 h
# T2 construct: gene PA3455
# T2 sequence (Q9HYF1 1-496): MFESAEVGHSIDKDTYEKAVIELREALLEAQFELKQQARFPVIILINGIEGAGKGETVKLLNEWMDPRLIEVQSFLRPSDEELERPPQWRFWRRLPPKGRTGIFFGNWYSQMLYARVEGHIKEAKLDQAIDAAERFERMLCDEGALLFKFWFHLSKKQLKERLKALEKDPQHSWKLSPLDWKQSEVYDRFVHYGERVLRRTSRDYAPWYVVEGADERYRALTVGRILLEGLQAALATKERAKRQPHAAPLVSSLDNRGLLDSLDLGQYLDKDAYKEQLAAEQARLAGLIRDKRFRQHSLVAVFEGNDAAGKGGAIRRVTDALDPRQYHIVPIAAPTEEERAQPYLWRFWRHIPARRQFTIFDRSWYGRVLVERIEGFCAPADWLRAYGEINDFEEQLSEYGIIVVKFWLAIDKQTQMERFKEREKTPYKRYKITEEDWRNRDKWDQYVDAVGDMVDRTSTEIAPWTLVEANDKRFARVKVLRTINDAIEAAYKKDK
# [4] = target: T1, PPK1; assay: change of ATP concentration, reverse reaction; conditions: 0-10 uM ATP, 5 uM ADP, 5 uM polyP6, 20 mM MgSO4, 50 mM Tris-HCl pH 8.0, 30 °C, 2 h
smiles,measurement,setting,value
Nc1ncnc2c1ncn2[C@@H]1O[C@H](COP(=O)(O)OP(=O)(O)O)[C@@H](O)[C@H]1O [ADP],ATP formation from ADP and polyPn,[1],"The activities of the three PPKs were compared in vitro using ADP, and different polyPs"
same,ATP formation from ADP and polyPn,[2],PPK2B^cg exhibited the highest ATP production ability
same,ATP formation from ADP and polyPn,[3],"The activities of the three PPKs were compared in vitro using ADP, and different polyPs"
Nc1ncnc2c1ncn2[C@@H]1O[C@H](COP(=O)(O)OP(=O)(O)OP(=O)(O)O)[C@@H](O)[C@H]1O [ATP],"change of ATP concentration, reverse reaction",[4],PPK1 catalyzes polyP6 polymerization and ATP is degraded into ADP
